{"source": "patent US20210283146A1", "about": "“COMPOSITION CONTAINING A 7BETA-HYDROXYCHOLESTEROL AND A LIPID VEHICLE, AND ITS USE IN THE TREATMENT OF NEOPLASTIC PATHOLOGIES” (priority 2018, published 2021)", "key": {"GBM": {"tested_on": "GBM", "settings": "cited from earlier work"}, "beagle dogs [1]": {"tested_on": "beagle dogs", "assay": "Study of tolerance of BIM2b PO in healthy dogs"}, "[2]": {"assay": "Analysis of BIM2b in the brains of mice treated per os with BIM2b PO (HPTLC)", "assay_type": "in vivo, mouse", "settings": "for Compound BIM2b (μg/g of brain): healthy mice, BIM2b PO per os", "procedure": "The mouse brains dried and stored invididually in cryotubes at […] in liquid nitrogen are left to return to ambient temperature. Each brain is weighed and put in the Potter; 4 ml of 0.74% of cold KCl is added and the rest of the procedure takes place on a bed of ice. Each brain is ground 6 times at 1000 rev/min, each cycle comprising 5 minutes of grinding and 5 minutes of rest. The oxysterols are extracted according to the Folch procedure described above (II.3.). The lipid residue is then subjected to adsorption chromatography on a silica column.\nThe silica (8 g) is prepared in 40 ml of the hexane:ether mixture (diethyl-oxide (3:7, v/v) and then poured into the appropriate columns. The height of the silica bed is 18 cm and its volume is 15 ml.\nA suitable quantity of mouse brain extract is dissolved in 1 ml of the first eluent system and deposited on the silica bed. Elution takes place in 4 steps in order to concentrate the fractions containing the oxysterols and remove as far as possible the lipids contaminating the mouse brain, in particular cholesterol.\nThe groups of fractions are evaporated to dryness, dissolved in acetone and the appropriate volumes are subjected to HPTLC chromatography.\nThe treatment of the healthy mice per os with BIM2b PO and the provenance of the brains are described in Example 4.\nThe compound BIM2b and its metabolites in the brains were separated, detected and quantified by HPTLC as described in the Methods section."}, "wild-type mice [3]": {"tested_on": "wild-type mice", "settings": "mouse, in vivo", "experimental": "(§1) The composition from Example 2 was administered orally (by tube) to wild-type mice at a rate of 1.5 mg (50 μl of BIM2 PO) per animal, twice a day, 5 days out of 7 with a maximum duration of treatment of 21 days.\n(§2) In the treated group, 2 mice were sacrificed after 18 days and 3 mice were sacrificed after 21 days. In the control group, 3 mice were sacrificed after 21 days.\n(§3) The samples of internal organs (stomach, alimentary canal, liver, kidney, lung, heart) were immersed in 4% formaldehyde for 72 h and stored at 4° C., and then embedded in paraffin. The samples underwent macroscopic analysis before and after thinning.\n(§4) Histological examination of the internal organs fixed with formaldehyde and toxicological quantifications were carried out on sections stained with haematoxylin-eosin-saffron according to a 4-level evaluation system complying with the nomenclature (3).\n(§5) All the sections were examined for possible signs of cellular alteration, degeneration, necrosis, inflammation, fibrosis etc."}, "wild-type mice [4]": {"tested_on": "wild-type mice", "assay": "Investigation of toxicity of BIM2b PO in healthy mice", "experimental": "as §1, §2, §3, §4, §5"}, "[5]": {"settings": "in vivo", "procedure": "The GBM tumour was obtained by necropsy of a dog with glioblastoma, which was treated by the oral route with BIM2b PO and which lived with a good quality of life for 8 months. Necropsy was carried out 21 days after stopping the treatment with BIM2b PO. The tumour was fixed in formol mainly for histopathology analysis and a remaining fragment was analysed for quantification of BIM2b.\nThe fragments of dog brains, stored individually in cryotubes at +4° C. in a bath of formol, are dried on sopalin paper before they are weighed and put in the Potter. Just as for extraction of the mouse brains, each fragment was extracted after adding 4 ml of cold 0.74% KCl. The procedures for homogenization and extraction are the same as was described for the mouse brains in the Methods section.\nDry lipid extract of the dog GBM tumour fragment was thus obtained and was chromatographed sequentially on a SEP PAK Classic Silica cartridge; then on SEP PAK Plus C18 (with eluent A=5 mM of ammonium acetate/ultrapure water and B=5 mM of ammonium acetate/MetOH).\nThe compound BIM2b and its metabolites in the tumour are separated, detected and quantified by HPTLC as described in Section II) Methods."}, "beagle dogs [6]": {"tested_on": "beagle dogs", "settings": "dog, in vivo"}, "spontaneous gliomas": {"tested_on": "spontaneous gliomas", "assay": "Anti-GBM efficacy of BIM2b PO by the oral route in dogs with spontaneous gliomas", "assay_type": "in vivo", "settings": "oral treatment; mean survival of a dog with GBM 2-3 months", "experimental": "9 dogs with spontaneous gliomas diagnosed by imagery were included in the study.\nThe condition and the tumour volume are evaluated by MRI.\nOn day D0 (1st administration), the GBM dog subject is examined clinically and a blood sample is collected for analysis of the biochemical parameters. On D15, an electrocardiogram is recorded and a blood sample is taken.\nElectrocardiograms, blood samples and MRI are carried out on D42, D63, D84 and D105, then 3 months and 6 months after stopping the treatment.\nThe tumour response is evaluated by MRI based on the RECIST criteria (Response Evaluation Criteria in Solid Tumours). These criteria define the tumoral response as follows: • progression is an increase in size of the largest axis of the tumour of more than 20% relative to the preceding MRI; • regression is defined by a decrease in the size of the largest axis of the tumour of more than 30% relative to the preceding MRI; • stability is defined by a change in the size of the tumour between a decrease of less than 30% and an increase of less than 20%."}}}
{"compound": "CN(C)C/C=C/C(=O)Nc1cc2c(Nc3ccc(F)c(Cl)c3)ncnc2cc1O[C@H]1CCOC1", "note": "[afatinib dimaleate]", "values": [{"measurement": "median survival for patients with GBM", "setting": "GBM", "result": "do not improve the median survival"}]}
{"compound": "N.N.[Cl][Pt][Cl]", "note": "[cisplatin]", "values": [{"measurement": "median survival for patients with GBM", "setting": "GBM", "result": "do not improve the median survival"}]}
{"compound": "O=P1(N(CCCl)CCCl)NCCCO1", "note": "(stereo not drawn) [cyclophosphamide]", "values": [{"measurement": "median survival for patients with GBM", "setting": "GBM", "result": "do not improve the median survival"}]}
{"compound": "bleomycin", "values": [{"measurement": "median survival for patients with GBM", "setting": "GBM", "result": "do not improve the median survival"}]}
{"compound": "CC(=O)O[C@H]1C=C2CC(OC(=O)C3COC(C)(C)O3)CC[C@]2(C)C2CC[C@@]3(C)C(CCC3[C@H](C)CCCC(C)C)C21", "note": "(stereo in doubt) [BIM2b, 7-acetoxy-10,13-dimethyl-17-(6-methylheptan-2-yl)-2,3,4,7,8,9,10,11,12,13,14,15,16,17-tetradecahydro-1H-cyclopenta[a]phenanthren-3-yl 2,2-dimethyl-1,3-dioxolane-4-carboxylate]", "values": [{"measurement": "hepatic or renal toxicity", "setting": "beagle dogs [1]", "result": "did not demonstrate hepatic or renal toxicity"}, {"measurement": "toxicity (conclusion)", "setting": "beagle dogs [1]; administered as BIM2b PO", "result": "does not lead to any toxicity"}, {"measurement": "Compound BIM2b (μg/g of brain)", "setting": "[2]; Day D2", "result": "12.5 μg/g of brain"}, {"measurement": "Compound BIM2b (μg/g of brain)", "setting": "[2]; Day D4", "result": "7.1 μg/g of brain"}, {"measurement": "Compound BIM2b (μg/g of brain)", "setting": "[2]; Day D18", "result": "11.7 μg/g of brain"}, {"measurement": "Compound BIM2b (μg/g of brain)", "setting": "[2]; Day D22 (treatment stopped on D20)", "result": "1.0 μg/g of brain"}, {"measurement": "percentage of BIM2b found in the brains relative to the total quantity ingested", "setting": "[2]; on D18", "result": 0.013, "unit": "%"}, {"measurement": "drop in the content of BIM2b in the mouse brain", "setting": "[2]; on D22, after stopping of the treatment on D20", "result": 91.5, "unit": "%"}, {"measurement": "crossing of the blood-brain barrier (BBB)", "setting": "[2]; treated healthy mice, oral", "result": "crosses the blood-brain barrier (BBB)"}, {"measurement": "hepatic or renal toxicity (biological parameters)", "setting": "wild-type mice [3]", "result": "did not demonstrate hepatic or renal toxicity"}, {"measurement": "toxicity (conclusion)", "setting": "wild-type mice [4]; oral", "result": "does not entrain any toxicity"}, {"measurement": "undesirable clinical effects", "setting": "wild-type mice [4]; twice a day, 5 times a week", "result": "did not give rise to undesirable clinical effects"}, {"measurement": "crossing of the BTB", "setting": "[5]; dog", "result": "crosses the BTB"}, {"measurement": "percentage by weight of BIM2b found in the whole tumour relative to the total quantity ingested", "setting": "[5]; dog", "result": 0.39, "unit": "%"}, {"measurement": "ratio of percentage in dog tumour to percentage in brains of healthy mice", "setting": "[5]; 21 days after stopping the treatment", "result": 30, "unit": "times"}, {"measurement": "undesirable clinical effects", "setting": "beagle dogs [6]", "result": "did not cause undesirable clinical effects"}, {"measurement": "survival of the GBM dog subject whose tumour was analysed", "setting": "spontaneous gliomas", "result": 8, "unit": "months"}]}
